Reference: patent publication US11642307B2, “Ambrisentan for use in the treatment of acute renal failure” (Noorik Biopharmaceuticals AG, priority 2016, dated 2023)

Key:
[1] = test system: porcine kidneys; experiment: Reperfusion of porcine kidneys following ischemic injury with endothelin-1 challenge; design: species or system Landrace cross female pigs; settings: treated kidneys, ambrisentan 150 μg/l
Description: All experiments were undertaken in accordance with the Home Office animals (Scientific Procedures) Act 1986. Ten kidneys were retrieved from 5 Landrace cross female pigs weighing approximately 50 kg. Two pairs of kidneys underwent 20 minutes of warm ischaemic injury and were then flushed with 500 m1 of UW solution at 4° C. and stored on ice for 18 hours. After 18 hours cold storage, kidneys were prepared and flushed with 100 m1 of Ringer's solution 4° C. with or without liquid composition of Example 1 which is diluted to an ambrisentan concentration of 150 μg/l. They were then left at room temperature for 20 minutes. The remaining three pairs of kidneys were retrieved after 10 minutes of warm ischaemia and stored on ice for 6 hours. They were prepared and flushed as previously described then left at room temperature for 10 minutes before reperfusion.
Kidneys were perfused with 1 liter of diluted whole autologous heparinized blood at 38.0° C. for 6 hours to assess renal function and injury. 1000 μmol/l of creatinine (Sigma-Aldrich) was added to the circuit. In the treated kidneys the ambrisentan-containing liquid composition as described above (150 μg/l) was added to the reperfusion circuit 10 minutes before the start of reperfusion. In the control and treated kidneys after 2 h 50 min of reperfusion, endothelin-1 (Sigma-Aldrich) was added to the arterial line of reperfusion circuit to achieve a concentration of (20 pg/ml). A sample of the perfusate was taken from the renal vein during the post preservation flush. Perfusion data was recorded after 30 minutes of reperfusion then at each hour. Plasma and urine samples were taken pre-reperfusion, 30 minutes after reperfusion, then at hourly time points to measure renal function.

[2] = human studies, ambrisentan 5 and 10 mg/day; cited from earlier work
[3] = target: T1, ETB receptor (Homo sapiens, UniProt P24530); experiment: Plasma endothelin-1 as measure of ETB receptor blockade in healthy human subjects; assay type: in vivo; settings: Group B (high dose, target 80 and 160 ng/mL)
T1 construct: from tissue; host or cells: living healthy human subjects (in vivo study; plasma endothelin-1 measured)
T1 sequence (P24530 27-442): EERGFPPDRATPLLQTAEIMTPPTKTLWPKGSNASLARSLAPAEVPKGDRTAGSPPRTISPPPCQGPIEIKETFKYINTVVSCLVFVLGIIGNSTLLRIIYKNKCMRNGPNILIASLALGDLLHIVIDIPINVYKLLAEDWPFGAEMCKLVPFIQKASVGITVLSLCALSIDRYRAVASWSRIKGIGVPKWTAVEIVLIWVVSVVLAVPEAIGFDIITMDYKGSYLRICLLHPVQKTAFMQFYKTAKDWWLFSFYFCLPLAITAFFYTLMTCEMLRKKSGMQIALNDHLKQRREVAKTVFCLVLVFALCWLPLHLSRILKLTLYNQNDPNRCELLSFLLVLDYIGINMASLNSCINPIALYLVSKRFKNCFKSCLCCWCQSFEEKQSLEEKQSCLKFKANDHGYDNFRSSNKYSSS
Description: In this study a liquid composition of ambrisentan at a concentration of 5 mg/mL was administered to 20 healthy human subjects at varying rates of administration in order to achieve different ambrisentan concentrations in blood and over a period of 24 hours. Target concentrations in the low dose group were 20 and 40 ng/mL (Group A) after 4 hours and 16 hours respectively, and 80 and 160 ng/mL in the high dose group (Group B) after 4 hours and 16 hours respectively. […] Steady state for each target concentration was maintained for at least 8 hours prior to increasing the concentration. Ten subjects were assigned to Group A and ten subjects to Group B. Pharmacokinetic and plasma ET-1 samples were collected and analysed at different timepoints for up to 72 hours. Urine was collected for 24 hours and in intervals from 0-2 hours, 2-4 hours, 4-8 hours, 8-12, hours, 12-18 hours and 18-24 hours.
Finally, the effect of the different concentrations of ambrisentan on the ETB receptor blockade was determined by measuring plasma endothelin-1 at different timepoints of the study.

[4] = Stability of ambrisentan liquid compositions; assay type: physicochemical; settings: use of an autoclave
Description: The liquid compositions of the invention can be prepared using conventional techniques. Typically, the invention pertains to a process for preparing a liquid composition comprising the steps of (a) contacting the endothelin receptor antagonist, preferably ambrisentan, the buffer and the solvent and optionally the excipient and (b) stirring the solution to allow dissolution of the various ingredients, in particular the endothelin receptor antagonist or ambrisentan; and (c) subsequently sterilizing the resulting solution. Step (a) of the process of the invention may comprise of contacting all ingredients at once or it may comprise contacting the ingredients in sequential order, whereby the one or more steps can proceed at the same temperature or at different temperatures. For example, the ingredients that easily dissolve in the solvent at room temperature can be contacted at room temperature first, and subsequently the temperature can be raised, e.g. to 50° C., after which the lowly soluble compounds are added, e.g. the endothelin receptor antagonist such as ambrisentan. Step (b) may proceed until no solid particles can be discerned visually or through analytical techniques. The sterilization of step (c) of the process can be conducted using any sterilization technique known in the art such as filtration and autoclave sterilization. […]

[5] = Raina et al; cited from earlier work
[6] = time 180 min (endothelin-1 20 pg/ml added after 2 h 50 min)
[7] = time 240 min (after endothelin-1)
[8] = time 300 min (after endothelin-1)
[9] = time 360 min (after endothelin-1)

COC(c1ccccc1)(c1ccccc1)[C@H](Oc1nc(C)cc(C)n1)C(=O)O [ambrisentan]
Oxygen consumption ([1]; 1 h of reperfusion): 63%
Oxygen consumption ([1]; 3 h of reperfusion): 64%
Oxygen consumption ([1]; 6 h of reperfusion): 55%
Renal blood flow ([1]; time 0 min): 45 ml/min/100 g
Renal resistance ([1]; time 0 min): 1.22 mmHg/min/100 g
Urine flow ([1]; time 0.5 h): 148 mL
Renal blood flow ([1]; time 30 min): 79 ml/min/100 g
Renal resistance ([1]; time 30 min): 0.58 mmHg/min/100 g
Urine flow ([1]; time 1 h): 124 mL
Renal blood flow ([1]; time 60 min): 84 ml/min/100 g
Renal resistance ([1]; time 60 min): 0.55 mmHg/min/100 g
Renal blood flow ([1]; time 120 min): 85 ml/min/100 g
Renal resistance ([1]; time 120 min): 0.56 mmHg/min/100 g
Urine flow ([1]; time 2 h): 116 mL
Urine flow ([1]; time 3 h): 80 mL
Renal blood flow [1, 6]: 85 ml/min/100 g
Renal resistance [1, 6]: 0.60 mmHg/min/100 g
Urine flow ([1]; time 4 h): 62 mL
Renal blood flow [1, 7]: 97 ml/min/100 g
Renal resistance [1, 7]: 0.56 mmHg/min/100 g
Urine flow ([1]; time 5 h): 44 mL
Renal blood flow [1, 8]: 93 ml/min/100 g
Renal resistance [1, 8]: 0.62 mmHg/min/100 g
Renal blood flow [1, 9]: 77 ml/min/100 g
Renal resistance [1, 9]: 0.78 mmHg/min/100 g
plasma levels [2]: exceeding 350 ng/ml
increase in plasma endothelin-1 from baseline [3]: more than 50%
stability on autoclave sterilization [4]: can decompose
pharmacokinetic interactions with cyclosporine A and tacrolimus [5]: absence of pharmacokinetic interactions
